Experiments:
PD-1/PD-L1 [1] = assay: PD-1/PD-L1 blockade bioassay at the cellular level (PD-L1 aAPC/CHO-K1 cells + PD-1 Effector T cells, luciferase); format: cell-based; conditions: Homo sapiens, T-cell; PD-L1 aAPC/CHO-K1 cells with PD-1 Effector T cells, 6 hours, luminescence; read-out: PD-1/PD-L1 Inhibitory Activity EC50
Experimental: In order to evaluate the effect of the compounds of the present invention, synthesized according to the above Preparation Examples, on blocking signal transduction between PD-1/PD-L1-expressing cells, a PD-1/PD-L1 blockade bioassay was conducted as described below.
Specifically, PD-L1 aAPC/CHO-K1 cells engineered to express human PD-L1 were seeded into a 96-well white plate and cultured for one day. On the following day, the compounds were prepared in a 96-well plate by serial dilution at concentrations starting from 10 µM and 5 µM, followed by 1/4 dilutions to obtain a total of ten concentrations. The culture medium in the plate seeded with the PD-L1 aAPC/CHO-K1 cell line was removed, and 40 µL of each prepared compound solution was added to a 96-well plate. Thereafter, 40 µL of PD-1 Effector T cell line engineered to express human PD-1 was additionally added, and then cultured for 6 hours. After 6 hours, 80 µL of Bio-Glo luciferase buffer was added to each well, followed by incubation at room temperature for 10 minutes, and luminescence was measured using a microplate reader.

MC38 hPD-L1 = assay: Tumor growth inhibition in MC38 hPD-L1 subcutaneous mouse model; format: in vivo; conditions: 50 mg/kg intraperitoneally once daily, female C57BL/6 mice
Experimental: In order to evaluate whether the tumor inhibitory effects of the compounds synthesized according to the above Preparation Examples are also effective in vivo, animal experiments were conducted as described below.
A mouse colon cancer cell line expressing human PD-L1 (MC38 hPD-L1) was prepared at a density of 1.25 x 10^6 cells in 100 µL of DPBS and inoculated subcutaneously into the flank of 6-week-old female C57BL/6 mice. When the average tumor volume reached approximately 50 mm^3, the mice were divided into three experimental groups, with eight mice per group. Vehicle and Compound 218 (50 mg/kg) were administered intraperitoneally once daily, while Durvalumab (anti-PD-L1 mAb) was administered intraperitoneally twice per week. Tumor volume and body weight were measured every three days.

[2] = target: T1, PD-L1 expressed on the cell surface (MC38 hPD-L1) (Homo sapiens, UniProt Q9NZQ7); assay: Internalization of cell surface PD-L1, flow cytometry with fluorescent staining; format: cell-based; conditions: MC38 hPD-L1 cells, 1 µM, 4 hours; untreated 90% to 99%
T1 construct: expressed in transfected cells; host or cells: MC38 mouse colon cancer cell line expressing human PD-L1
T1 sequence (Q9NZQ7 19-290): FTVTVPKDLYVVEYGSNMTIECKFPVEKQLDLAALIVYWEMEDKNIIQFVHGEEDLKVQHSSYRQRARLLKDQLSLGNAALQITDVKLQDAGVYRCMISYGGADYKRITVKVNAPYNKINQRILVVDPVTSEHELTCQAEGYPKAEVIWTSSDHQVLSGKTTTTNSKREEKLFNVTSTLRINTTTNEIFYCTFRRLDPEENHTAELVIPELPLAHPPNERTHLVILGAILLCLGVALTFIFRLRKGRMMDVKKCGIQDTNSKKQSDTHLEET

tumor = tumor growth inhibition in a group administered with the compound (FIG. 1); format: in vivo; conditions: graph of FIG. 1; group administered with Compound 218; no numbers printed in this part
hPD-L1 = hPD-L1 (Homo sapiens, UniProt Q9NZQ7); assay: TR-FRET dimerization of hPD-L1 molecules; format: biochemical
hPD-L1, sequence (Q9NZQ7 19-238 limits assumed): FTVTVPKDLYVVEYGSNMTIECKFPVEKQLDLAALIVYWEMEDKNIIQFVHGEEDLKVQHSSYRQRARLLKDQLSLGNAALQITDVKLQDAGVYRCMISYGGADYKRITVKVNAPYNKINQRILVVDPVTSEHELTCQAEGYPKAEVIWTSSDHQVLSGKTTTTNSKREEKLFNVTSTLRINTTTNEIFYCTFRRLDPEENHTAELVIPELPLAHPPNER
hPD-L1, sequence (Q9NZQ7 19-238 limits assumed): as above
Experimental: In order to evaluate the dimerization of hPD-L1 molecules induced by the compounds of the present invention synthesized according to the above Preparation Examples, a TR-FRET (Time-Resolved Fluorescence Energy Transfer) experiment was performed as described below.
Specifically, the compounds were prepared in a 96-well plate by serial dilution starting from 10 µM with 1/3 dilutions to obtain a total of twelve concentrations. Thereafter, 2 µL of each compound solution was added to a 384-well plate. Fc tag-hPD-L1 protein and His tag-hPD-L1 protein were each prepared at a 1x concentration, mixed at a ratio of 1:1 of above two proteins, and 8 µL of the mixed protein solution was added to each well of the 384-well plate containing the compounds, followed by incubation at room temperature for one day. On the following day, Anti-6His-Tb Cryptate Gold antibody and Anti-human IgG-XL665 antibody were each prepared at a 1x concentration, mixed at a ratio of 1:1, and 10 µL of the mixed antibody solution was added to each well of the 384-well plate containing the compounds and proteins, followed by incubation at room temperature for 2 hours. Upon completion of the reaction, fluorescence signals at wavelengths of 620 nm and 665 nm were measured using a microplate reader.

PD-1/PD-L1 [3] = target: PD-1/PD-L1 (Homo sapiens, UniProt Q9NZQ7); assay: TR-FRET PD-1/PD-L1 binding inhibition at the molecular level (free proteins); conditions: Tag1-PD-L1 and Tag2-PD-1 proteins, twelve concentrations from 200 nM, 2 hours at room temperature, read-out: FRET assay (IC50)
PD-1/PD-L1 (Homo sapiens, UniProt Q9NZQ7), sequence (Q9NZQ7 19-238 limits assumed): as above
How it was run: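 HTRF read-out at 665/620 nm after 2 h at room temperature. Detection used anti-Tag1 Eu cryptate plus anti-Tag2 XL665 antibodies. Tagged PD-L1 and PD-1 proteins were pre-mixed with compound across twelve […] 1:2 dilutions starting at 200 nM.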

O=C(O)CN[C@H]1CCCn2nc(C(=O)Nc3cccc(-c4cccc(Nc5nccc6cc(CN7CC[C@@H](O)C7)cnc56)c4Cl)c3Cl)cc21 [Compound 218, 2-(((S)-2-((2,2'-dichloro-3'-((3-(((R)-3-hydroxypyrrolidin-1-yl)methyl)-1,7-naphthyridin-8-yl)amino)-[1,1'-biphenyl]-3-yl)carbamoyl)-4,5,6,7-tetrahydropyrazolo[1,5-a]pyridin-4-yl)amino)acetic acid]
EC50 (PD-1/PD-L1 [1]): 19.2 nM
tumor growth inhibition compared to the vehicle-treated group (MC38 hPD-L1; Figure 1): significant inhibition of tumor growth
change in body weight of mice (MC38 hPD-L1; Figure 2): no change in body weight
Cell surface PD-L1 expression level (%) [2]: 0.3%
tumor growth inhibitory effect (tumor): tumor growth inhibitory effect
EC50 (hPD-L1; Fc tag-hPD-L1 and His tag-hPD-L1, twelve concentrations from 10 µM): 6.1 nM
induction of dimerization of hPD-L1 molecules (in words) (hPD-L1; summary of Table 3): effectively induced dimerization of hPD-L1 molecules at the nanomolar level
IC50 (PD-1/PD-L1 [3]): < 10 nM

— patent EP4755888A1 (ILAb Co., Ltd., priority 2023, dated 2025)
